Tests used:
Experiment in all cases: relative viability (nuclei count vs DMSO), 5 days (fraction); higher = more cells survive
[1] = compound: C1=CC(=CC=C1NC(=S)NNC2=C(C=C(C=C2[N+](=O)[O-])C(F)(F)F)[N+](=O)[O-])F [Kobe2602] + O=C(c1cc(Cc2n[nH]c(=O)c3ccccc23)ccc1F)N1CCN(C(=O)C2CC2)CC1 [Olaparib] (partner 8 µM)
In short: (§1)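 Nuclei were stained with Hoechst during a one-step fixation (final 0.05% Triton X-100, 1% formaldehyde, 1 ug/ml Hoechst) carried out 5 days after dosing, then counted on 4× images. The cells, lung cancer lines in 1536-well plates, had been dosed by pin tool the day after seeding with one drug alone or a fixed anchor-drug dose plus five library-drug doses (not always all listed) in √10 steps. Relative viability is the nuclei count in treated wells divided by that in vehicle wells, and each value is the median of duplicate plates.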

[2] = compound: COc1cc2nccc(Oc3ccc(NC(=O)C4(C(=O)Nc5ccc(F)cc5)CC4)cc3)c2cc1OC [Cabozantinib] + CS(=O)(=O)N1CCN(Cc2cc3nc(-c4cccc5[nH]ncc45)nc(N4CCOCC4)c3s2)CC1 [Pictilisib] (partner 1 µM)
In short: as §1

[3] = compound: COc1cc2nccc(Oc3ccc(NC(=O)C4(C(=O)Nc5ccc(F)cc5)CC4)cc3)c2cc1OC [Cabozantinib] + Cc1nc(Nc2ncc(C(=O)Nc3c(C)cccc3Cl)s2)cc(N2CCN(CCO)CC2)n1 [Dasatinib] (partner 0.075 µM)
In short: as §1

[4] = compound: COc1cc2nccc(Oc3ccc(NC(=O)C4(C(=O)Nc5ccc(F)cc5)CC4)cc3)c2cc1OC [Cabozantinib] + NC(=O)Nc1cc(-c2cccc(F)c2)sc1C(=O)N[C@H]1CCCNC1 [AZD7762] (partner 0.2 µM)
In short: as §1

## 201T
[1]; first compound 0.2 µM
  relative viability: 0.815
[1]; first compound 0.6325 µM
  relative viability: 0.859
[1]; first compound 2 µM
  relative viability: 0.869
[1]; first compound 6.325 µM
  relative viability: 0.866
[1]; first compound 20 µM
  relative viability: 0.826
[2]; first compound 0.02 µM
  relative viability: 0.688
[2]; first compound 0.06325 µM
  relative viability: 0.715
[2]; first compound 0.2 µM
  relative viability: 0.656
[2]; first compound 0.6325 µM
  relative viability: 0.709
[2]; first compound 2 µM
  relative viability: 0.71
[3]; first compound 0.02 µM
  relative viability: 0.385
[3]; first compound 0.06325 µM
  relative viability: 0.549
[3]; first compound 0.2 µM
  relative viability: 0.573
[3]; first compound 0.6325 µM
  relative viability: 0.534
[3]; first compound 2 µM
  relative viability: 0.545
[4]; first compound 0.02 µM
  relative viability: 0.624
[4]; first compound 0.06325 µM
  relative viability: 0.736
[4]; first compound 0.2 µM
  relative viability: 0.591
[4]; first compound 0.6325 µM
  relative viability: 0.675
[4]; first compound 2 µM
  relative viability: 0.695

## A549
[1]; first compound 0.2 µM
  relative viability: 0.45
[1]; first compound 0.6325 µM
  relative viability: 0.484
[1]; first compound 2 µM
  relative viability: 0.281
[1]; first compound 6.325 µM
  relative viability: 0.315
[1]; first compound 20 µM
  relative viability: 0.513
[2]; first compound 0.02 µM
  relative viability: 0.572
[2]; first compound 0.06325 µM
  relative viability: 0.57
[2]; first compound 0.2 µM
  relative viability: 0.502
[2]; first compound 0.6325 µM
  relative viability: 0.514
[2]; first compound 2 µM
  relative viability: 0.379

## A-427
[1]; first compound 0.2 µM
  relative viability: 0.74
[1]; first compound 0.6325 µM
  relative viability: 0.726
[1]; first compound 2 µM
  relative viability: 0.73
[1]; first compound 6.325 µM
  relative viability: 0.785
[1]; first compound 20 µM
  relative viability: 0.701
[2]; first compound 0.02 µM
  relative viability: 0.657
[2]; first compound 0.06325 µM
  relative viability: 0.785
[2]; first compound 0.2 µM
  relative viability: 0.638
[2]; first compound 0.6325 µM
  relative viability: 0.773
[2]; first compound 2 µM
  relative viability: 0.744
[3]; first compound 0.02 µM
  relative viability: 0.81
[3]; first compound 0.06325 µM
  relative viability: 0.705
[3]; first compound 0.2 µM
  relative viability: 0.695
[3]; first compound 0.6325 µM
  relative viability: 0.706
[3]; first compound 2 µM
  relative viability: 0.795
[4]; first compound 0.02 µM
  relative viability: 0.757
[4]; first compound 0.06325 µM
  relative viability: 0.806
[4]; first compound 0.2 µM
  relative viability: 0.788
[4]; first compound 0.6325 µM
  relative viability: 0.772
[4]; first compound 2 µM
  relative viability: 0.683

## ABC-1
[1]; first compound 0.2 µM
  relative viability: 0.639
[1]; first compound 0.6325 µM
  relative viability: 0.623
[1]; first compound 2 µM
  relative viability: 0.747
[1]; first compound 6.325 µM
  relative viability: 0.773
[1]; first compound 20 µM
  relative viability: 0.775
[2]; first compound 0.02 µM
  relative viability: 0.604
[2]; first compound 0.06325 µM
  relative viability: 0.707
[2]; first compound 0.2 µM
  relative viability: 0.681
[2]; first compound 0.6325 µM
  relative viability: 0.701
[2]; first compound 2 µM
  relative viability: 0.819
[3]; first compound 0.02 µM
  relative viability: 0.515
[3]; first compound 0.06325 µM
  relative viability: 0.567
[3]; first compound 0.2 µM
  relative viability: 0.596
[3]; first compound 0.6325 µM
  relative viability: 0.55
[3]; first compound 2 µM
  relative viability: 0.525
[4]; first compound 0.02 µM
  relative viability: 0.678
[4]; first compound 0.06325 µM
  relative viability: 0.843
[4]; first compound 0.2 µM
  relative viability: 0.733
[4]; first compound 0.6325 µM
  relative viability: 0.844
[4]; first compound 2 µM
  relative viability: 0.632

## BEN
[1]; first compound 0.2 µM
  relative viability: 1.08
[1]; first compound 0.6325 µM
  relative viability: 1.02
[1]; first compound 2 µM
  relative viability: 1
[1]; first compound 6.325 µM
  relative viability: 1.07
[1]; first compound 20 µM
  relative viability: 0.973
[2]; first compound 0.02 µM
  relative viability: 0.58
[2]; first compound 0.06325 µM
  relative viability: 0.632
[2]; first compound 0.2 µM
  relative viability: 0.576
[2]; first compound 0.6325 µM
  relative viability: 0.601
[2]; first compound 2 µM
  relative viability: 0.458
[3]; first compound 0.02 µM
  relative viability: 0.294
[3]; first compound 0.06325 µM
  relative viability: 0.391
[3]; first compound 0.2 µM
  relative viability: 0.313
[3]; first compound 0.6325 µM
  relative viability: 0.318
[3]; first compound 2 µM
  relative viability: 0.232
[4]; first compound 0.02 µM
  relative viability: 0.624
[4]; first compound 0.06325 µM
  relative viability: 0.891
[4]; first compound 0.2 µM
  relative viability: 0.746
[4]; first compound 0.6325 µM
  relative viability: 0.773
[4]; first compound 2 µM
  relative viability: 0.59

## CAL-12T
[1]; first compound 0.2 µM
  relative viability: 0.697
[1]; first compound 0.6325 µM
  relative viability: 0.685
[1]; first compound 2 µM
  relative viability: 0.678
[1]; first compound 6.325 µM
  relative viability: 0.707
[1]; first compound 20 µM
  relative viability: 0.784
[2]; first compound 0.02 µM
  relative viability: 0.364
[2]; first compound 0.06325 µM
  relative viability: 0.411
[2]; first compound 0.2 µM
  relative viability: 0.383
[2]; first compound 2 µM
  relative viability: 0.336
[3]; first compound 0.02 µM
  relative viability: 0.324
[3]; first compound 0.06325 µM
  relative viability: 0.341
[3]; first compound 0.2 µM
  relative viability: 0.354
[3]; first compound 0.6325 µM
  relative viability: 0.327
[3]; first compound 2 µM
  relative viability: 0.221
[4]; first compound 0.02 µM
  relative viability: 0.714
[4]; first compound 0.06325 µM
  relative viability: 0.682
[4]; first compound 0.2 µM
  relative viability: 0.641
[4]; first compound 0.6325 µM
  relative viability: 0.651
[4]; first compound 2 µM
  relative viability: 0.567

## COR-L23
[1]; first compound 0.2 µM
  relative viability: 0.316
[1]; first compound 0.6325 µM
  relative viability: 0.394
[1]; first compound 2 µM
  relative viability: 0.351
[1]; first compound 6.325 µM
  relative viability: 0.361
[1]; first compound 20 µM
  relative viability: 0.326
[2]; first compound 0.02 µM
  relative viability: 0.487
[2]; first compound 0.06325 µM
  relative viability: 0.831
[2]; first compound 0.2 µM
  relative viability: 0.789
[2]; first compound 0.6325 µM
  relative viability: 0.74
[2]; first compound 2 µM
  relative viability: 0.691
[3]; first compound 0.02 µM
  relative viability: 0.537
[3]; first compound 0.06325 µM
  relative viability: 0.425
[3]; first compound 0.2 µM
  relative viability: 0.466
[3]; first compound 0.6325 µM
  relative viability: 0.452
[3]; first compound 2 µM
  relative viability: 0.36

## COR-L 105
[1]; first compound 0.2 µM
  relative viability: 0.658
[1]; first compound 0.6325 µM
  relative viability: 0.718
[1]; first compound 2 µM
  relative viability: 0.425
[1]; first compound 6.325 µM
  relative viability: 0.588
[1]; first compound 20 µM
  relative viability: 0.686
[2]; first compound 0.02 µM
  relative viability: 0.343
[2]; first compound 0.06325 µM
  relative viability: 0.385
[2]; first compound 0.6325 µM
  relative viability: 0.43
[2]; first compound 2 µM
  relative viability: 0.37
[3]; first compound 0.02 µM
  relative viability: 0.352
[3]; first compound 0.06325 µM
  relative viability: 0.283
[3]; first compound 0.6325 µM
  relative viability: 0.314
[3]; first compound 2 µM
  relative viability: 0.314

## Calu-6
[1]; first compound 0.2 µM
  relative viability: 0.581
[1]; first compound 0.6325 µM
  relative viability: 0.589
[1]; first compound 2 µM
  relative viability: 0.606
[1]; first compound 6.325 µM
  relative viability: 0.631
[1]; first compound 20 µM
  relative viability: 0.514
[2]; first compound 0.02 µM
  relative viability: 0.984
[2]; first compound 0.06325 µM
  relative viability: 1.05
[2]; first compound 0.2 µM
  relative viability: 0.878
[2]; first compound 0.6325 µM
  relative viability: 0.814
[2]; first compound 2 µM
  relative viability: 0.78

## ChaGo-K-1
[1]; first compound 0.2 µM
  relative viability: 0.362
[1]; first compound 0.6325 µM
  relative viability: 0.406
[1]; first compound 2 µM
  relative viability: 0.4
[1]; first compound 6.325 µM
  relative viability: 0.355
[1]; first compound 20 µM
  relative viability: 0.332
[2]; first compound 0.02 µM
  relative viability: 0.533
[2]; first compound 0.06325 µM
  relative viability: 0.933
[2]; first compound 0.2 µM
  relative viability: 0.676
[2]; first compound 0.6325 µM
  relative viability: 0.405
[2]; first compound 2 µM
  relative viability: 0.647
[3]; first compound 0.02 µM
  relative viability: 0.552
[3]; first compound 0.06325 µM
  relative viability: 0.652
[3]; first compound 0.2 µM
  relative viability: 0.519
[3]; first compound 0.6325 µM
  relative viability: 0.634
[3]; first compound 2 µM
  relative viability: 0.542
[4]; first compound 0.02 µM
  relative viability: 0.927
[4]; first compound 0.06325 µM
  relative viability: 0.943
[4]; first compound 0.2 µM
  relative viability: 0.868
[4]; first compound 0.6325 µM
  relative viability: 0.872
[4]; first compound 2 µM
  relative viability: 0.857
